Here are results for one substance from patent US9037230B2, “Method and device for treating microscopic tumors remaining in tissues following surgical resection” (OncoSec Medical Incorporated, priority 2006, dated 2015).

The nature of data set [1]: Histological evaluation of incision healing (skin, subcutaneous tissue, muscle) in swine. In kind it is in vivo. How it is done:
(§1) In this experiment eighteen transcutaneous incisions were made into the dorsal muscles in each of eight pig test animals grouped 1-6. In study groups 1-5, longitudinal incisions were made while in group 6 the incisions were transverse to the longitudinal orientation of the muscle fiber. At each incision site, either nothing, normal saline, or Bleomycin in solution was injected such that injections were placed to a 1 cm depth and spaced at 1 cm distances from one another with three injections, one on each side of each incision within 3 cm of each other and one in the center of the incision. Bleomycin, an anti-cancer agent, was used wherein each injection consisted of 0.125 ml (4 units/ml saline). The incisions were then treated with bipolar pulses of 530 V, 100 μsec each, from a pulse generator using a 6-needle electrode array of 0.5 cm diameter (nominal field strength for each pulse was 1,233 V/cm).
(§2) Specifically, 8 male Yorkshire/Hampshire cross swine (40-50 kg) were acclimated 5-7 days prior to surgery. Incision locations were marked on the dorsum using sterile surgical markers. Each incision was 5 cm long and made to a depth of 5 mm into the muscle. All animals in groups 1-5 received 18 longitudinal incisions each, while animals in group 6 received transverse incisions, in accordance with Table I. Each study group comprised 24 incisions.
Injections of a total volume of 1.5 ml of saline or Bleomycin (6 U) were administered at 12 sites per incision, 6 in the muscle and 6 in the skin. Incisions treated with electroporation were electroporated using a 0.5 cm diameter, 1.5 cm long needle array. On each side of the muscle incision, electroporation was given 3 times in the central 3 cm of the incision, each electroporation site being 1 cm apart from the other. Skin was not electroporated. The epimysium was closed with 4-0 Vicryl absorbable interrupted sutures. The skin was closed with 4-0 nylon interrupted sutures. Swine were sacrificed at 2 d, 1 wk, 2 wks, or 3 wks following surgery. […]

Data set [2] concerns HT-29 human colon carcinoma cells. As to the kind of experiment: Gross consistency of HT-29 tumors excised at various times after Bleomycin-EPT. In kind it is in vivo, mice. The procedure:
For this purpose, three additional cohort Groups 9, 10, and 11 were used.
The animals of Group 9 were anaesthetized followed by complete excision of the tumors. The tumors were examined for consistency and preserved in formalin for later histological evaluation, as were the tumor tissues of cohorts 10 and 11. Anaesthetized animals of cohort 10 were subjected to intratumoral administration of Bleomycin solution at a dose and volume as described above. EP was performed 10 minutes after drug administration. Tumors were excised 2 hrs after EP. Animals of cohort 11 were treated as those in cohort 10 except that their tumors were completely removed at 24 hrs after EP. All wounds were closed as described above. Results
With respect to cohorts 9-11, we observed that the consistency of the tumor changed progressively with time after treatment. […] At that time point surgical excision was somewhat difficult because the boundaries of the tumor were ill defined as compared to the solid tumor tissue mass of cohort 9 animals. […] These observations provide proof of the opportunity of using drug, such as Bleomycin or other anticancer agent, in combination with EPT as adjuvant or tumor debulking therapy that can additionally be used alone or in conjunction with other cancer therapies. For example, a tumor could be treated with Bleomycin-EPT, the disintegrated tumor material be removed by a simple minimally invasive procedure, and if desired, followed by conventional treatments such as radiation or chemotherapy, or other tumor therapy modalities. Easy removal of the liquefied tumor material can also allow the wound to heal faster and with fewer complications, especially in the case of large tumors.

The test system is the same in data set [3]. Put plainly: Tumor recurrence after surgery and Bleomycin electroporation therapy (EPT) in nude mice with HT-29 tumors. In kind it is in vivo. The following applies: for % efficacy (animals that did NOT experience tumor growth post treatment): three weeks after treatment. How it is done: In this example, a series of experiments were performed in mice wherein tumor recurrence rates were determined after surgery alone or after surgery and EPT. Specifically, this experiment comprises an in vivo study to establish the efficacy of EPT on surgical margin treatment in nude mice after subcutaneous introduction of HT-29 human colon carcinoma cells and resection of the tumors that arise from such introduction. The experiment was conducted under humane conditions with respect to treatment of the test animals.
The experimental design was as follows. Normal Athymic Nude female mice 4-6 weeks of age were placed in 8 groups of six mice each, except for Group 1 which comprised 10 animals and Group 3 comprising 7 animals. The HT-29 cell line is derived from a human colon carcinoma and is an aggressive fast-growing tumor in mice. In each group the animals received HT-29 human tumor cells in the form of two adjacent inocula of 5×10^6 cells using a 21 gauge needle and syringe. The HT-29 cell line was obtained from […] (#HTB-38), grown in McCoy's 5a medium (modified) with 1.5 mM L-glutamine adjusted to contain 2.2 g/L sodium bicarbonate, 90%, and fetal bovine serum, 10%. Cells were divided 1:2 to 1:4 on growth cycles until sufficient cells were available to use in this experiment.
Following inoculation the tumors became established at the site of the inoculations. The tumor volume on each animal was monitored regularly and calculated using the formula: Tumor volume=(a^2×b/2) where ‘a’ is the smallest diameter and ‘b’ is the largest diameter perpendicular to ‘a’. Tumors were measured three times per week starting from the day the tumors were palpable by hand. The tumors were allowed to progress until the size was between 500 and 1500 cubic millimeters. Surgical tumor removal, partial removal, or no removal was then performed in association with either EPT or no EPT. In these experiments EPT means treatment with Bleomycin and electroporation (EP). The EP, where performed, was conducted with one pulse cycle (i.e., 6 pulses at 4 Hz) per electrode insertion using a standard MedPulser generator (Genetronics, Inc. San Diego, Calif.) and an applicator with a disposable six needle array of 1 cm diameter, a distance between electrodes of 0.86 cm, and 1 cm needle length. […] The needle array was inserted percutaneously and essentially perpendicular to the surface of the flank of the mouse carrying the tumor. Alternatively, in those cases where the tumor was excised first, followed by i.v. injection of Bleomycin and then by EP, the needle electrode array was inserted percutaneously encompassing the surgical wound area (Groups 5-8).
Where Bleomycin was used in the experiment, it was injected at 4 U/ml saline (1U=1 mg) as uniformly as possible into tumor and margin tissues, as indicated, at a dose of 0.25 ml/cm^3 volume of tissue to be treated. Alternatively, where indicated, a corresponding amount of Bleomycin was injected into the tail vein.
The experiment used 8 cohorts of at least 6 mice each. Each cohort was subjected to a treatment regimen of a combination of any of EP, Bleomycin, saline instead of Bleomycin, complete tumor excision, partial tumor excision, and no tumor excision. Tables II and III disclose the treatment regimens.
For experiments on animals listed in Table II, the animals were anaesthetized, followed by removal or partial removal of the tumor as indicated, followed in turn by intraveneous (i.v.) injection of Bleomycin or saline. The Bleomycin dose was dependent on tumor size as described above. After 3 to 4 minutes, the animals indicated were treated with EP followed by closure of the wound with clips and surgical adhesive. In cohort 1, the entire tumor was surgically removed (see, for example FIGS. 12B and C) and the animals treated with Bleomycin and EP. In cohort 2, the tumors were removed from the animals but only saline was injected instead of Bleomycin and no EP was performed. […]

The nature of data set [4]: Breaking strength of healing skin incisions in swine after Bleomycin with or without electroporation. In kind it is in vivo. The procedure: as §1, §2
Injections of a total volume of 1.5 ml of saline or Bleomycin (6 U) were administered at 12 sites per incision, 6 in the muscle and 6 in the skin. Incisions treated with electroporation were electroporated using a 0.5 cm diameter, 1.5 cm long needle array. On each side of the muscle incision, electroporation was given 3 times in the central 3 cm of the incision, each electroporation site being 1 cm apart from the other. Skin was not electroporated. The epimysium was closed with 4-0 Vicryl absorbable interrupted sutures. The skin was closed with 4-0 nylon interrupted sutures. Swine were sacrificed at 2 d, 1 wk, 2 wks, or 3 wks following surgery. Histology specimens containing skin and at least 5 mm depth of underlying muscle were taken from the center of the incision and immediately placed in 10% neutral buffered formalin. An additional control specimen was taken from non-incised skin on the dorsum. After staining and sectioning, skin, subcutaneous tissue, and muscle were graded histologically on a 0-3 scale using the following parameters: Healing, Granulations/Fibrosis, PMN's, Lymphocytes, Histiocytes, Necrosis, Hemorrhage and Atypical Cells.
Mechanical testing was performed on strips of skin removed from the center of the incision at three different time points, namely, Days 7, 14, and 21. […] Breaking strength was determined by plotting the […] versus the strain for each incision up to the breaking point. […]

The test system of data set [5] is HT-29 human colon carcinoma cells. The note with it: stated as known, not tested; cited from earlier work.

With Bleomycin, the “muscle necrosis, Bleomycin plus EP vs Bleomycin” value in data set [1] (2 weeks, difference disappeared by 3 weeks) was “significant increase in muscle necrosis”. The histological changes result in data set [1] (day 7, Bleomycin groups) is reported as “statistically significant changes”. Besides, in data set [1] (day 21, all Bleomycin injected samples), the “histology compared with controls” value was “comparable with saline-injected controls”. Also, the “consistency of the tumor” value in data set [2] (cohort 10: excised two hours after i.t. Bleomycin-EP) is “softer, less well defined”; in data set [2] (cohort 11: excised 24 hrs after i.t. Bleomycin-EP) it was “completely softened”; in data set [2] (cohorts 5 and 7: removed 15 minutes after i.t. Bleomycin-EP), “softening of the tumor”. Also, the “% efficacy (animals that did NOT experience tumor growth post treatment)” value was found to be 90% in data set [3] (Group 1: complete tumor excision, Bleomycin i.v., EP); 67% in data set [3] (Group 3: partial tumor excision, Bleomycin i.v., EP); 100% in data set [3] (Group 5: Bleomycin intratumoral, EP, complete tumor excision 15 minutes later); 80% in data set [3] (Group 6: no tumor excision, Bleomycin intratumoral, EP); 100% in data set [3] (Group 7: Bleomycin intratumoral, EP, partial tumor excision 15 minutes later); 67% in data set [3] (Group 8: no tumor excision, Bleomycin intratumoral, partial (off-centered) EP). In data set [3] (Group 1: complete tumor removal, Bleomycin-EP, 3 weeks post treatment (FIG. 12)), the “tumor recurrence at the site of treatment” value is “no tumor recurred”. The tumor recurrence entry is “no tumor recurrence” in data set [3] (Group 7: partial tumor removal, Bleomycin i.t. and EP, 3 weeks (FIG. 13)); “no tumor recurrence” in data set [3] (cohorts 5 and 7: Bleomycin i.t. and EP, excision 15 minutes after treatment). Also, the “reduction of breaking strength of skin incisions compared to non-Bleomycin groups” value in data set [4] (1 week post-incision, all three Bleomycin treated groups (with or without EP)) is 90%. Also, in data set [4] (three weeks post incision, FIG. 1), the “wound strength (breaking point), difference between saline and Bleomycin with or without EP” value is recorded as “no substantial difference”. Also, the “breaking strength of skin incisions, difference between groups” value is on record as “no significant differences between Groups 1-5” in data set [4] (week 2, longitudinal incisions, Bleomycin with or without EP (Groups 4, 5) vs Groups 1-3); “significantly lower breaking strength” in data set [4] (week 3, Group 6, transverse incisions with Bleomycin and EP vs Groups 1-5). The “antitumoral activity of Bleomycin administration without EP” value in data set [5] is reported as “no significant antitumoral activity”.
